Laboratory results taken from patent US20230372361A1, “USE OF OXYGENATED CHOLESTEROL SULFATES FOR TREATING INFLAMMATORY CONDITIONS” (Durect Corporation, priority 2020, published 2023).

Assays:
[1] = Metabolite profiling of plasma, urine, feces after intravenous dose (HPLC radiodetection, MS); type: in vivo, rats; conditions: iv 10 mg/kg
Description: Plasma pools were made from Group 1 rats at the 0.083, 0.25, 0.5, and 1-hour collection time points.
Urine pools were prepared for Group 2 at 0 to 6 and 6 to 12 hours post-dose. […] Four metabolites present at <10% relative observed intensity in at least 1 sample were M7 (<5% relative observed intensity), M16 (<3% relative observed intensity), M19 (<6% relative observed intensity), and M25 (<5% relative observed intensity).
Feces pools were prepared for Group 2 at 0 to 12, 12 to 24, and 24 to 48 hours post-dose.

[2] = Metabolite profiling of plasma and feces after oral dose (radio-HPLC, HPLC/MS); set-up: species or system rats; conditions: Sprague Dawley, rat, in vivo, 75 mg/kg
Description: Radiolabeled components in plasma and feces extracts were profiled and identified using radio-high performance liquid chromatography (HPLC) and high performance liquid chromatography/mass spectrometry (HPLC/MS) methods.
Plasma pools were prepared for Group 1 (75 mg/kg, [14C]-25HC3S) samples collected at 2, 4, and 6 hours post-dose. […] One metabolite M29 was identified as 25-hydroxycholesterol with 37% ROI and a concentration of 1233 ng-equiv./g.
Feces pools were prepared for Group 2 (75 mg/kg, [^14C]-25HC3S) samples collected from 0 to 24, 24 to 48, 48 to 72, 72 to 96, 96 to 120, 120 to 144, and 144 to 168 hours post-dose. A total of eleven metabolites were identified. None of the metabolites were present at ≥5% of dose. Metabolites present at 2-5% of dose were M1(4.5% of total dose and 1%-69% ROI), M3 (4.6% of total dose and 1%-44% ROI), M4 (2.0% of total dose and 0%-10% ROI), M8 (3.1% of total dose and 1%-46% ROI), M29 (1.9% of total dose and 0%-2% ROI), and M30 (3.3% of total dose and 0%-5% ROI).

[3] = Tissue distribution by quantitative whole body autoradiography, intravenous; type: in vivo, male Sprague Dawley rats; conditions: iv 10 mg/kg
Description: (§1) Nine male Sprague Dawley rats (Group 1) were designated for the pharmacokinetic phase, 3 male Sprague Dawley rats (Group 2) for the excretion mass balance phase, and 7 male Sprague Dawley rats (Group 3) and 9 male Long Evans rats (Group 4) for the tissue distribution phase. All animals received a single intravenous dose of [^14C]-25HC3S at 10 mg/kg and a target radioactivity of 225 μCi/kg. Blood samples were collected from all Group 1 animals at approximately 0.083, 0.25, 0.5, 1, 2, 4, 8, 12, 24, 48, and 72 hours post-dose. Urine and feces were collected from all Group 2 animals periodically through 168 hours post-dose. […] Following blood collection, animals were euthanized by CO2 inhalation and carcasses frozen in a dry ice/hexane bath for processing by quantitative whole body autoradiography. Whole blood, plasma, urine, feces, cage rinse, and cage wash were analyzed for total radioactivity by liquid scintillation counting.

[4] = Plasma pharmacokinetics of radioactivity, single intravenous dose; type: in vivo, male Sprague Dawley rats; conditions: single intravenous (bolus) dose 10 mg/kg; total radioactivity
Description: as §1

[5] = set-up: species or system rats; conditions: rat, in vivo, po, 75 mg/kg
Description: The terminal elimination phase T1/2 was 27.3 hours.

[6] = Excretion mass balance, single intravenous dose; type: in vivo, male Sprague Dawley rats; conditions: iv 10 mg/kg; over 168 hours
Description: as §1

Huh-7 cells = experiment: Whole genome bisulfite sequencing (WGBS), promoter 5mCpG demethylation; type: cell-based, human; conditions: 25 μM, 4 hours
Description: Huh-7 and HepG-2 cells were cultured in DMEM media supplemented with 10% heat-inactivated fetal bovine serum (FBS), high glucose (HG, 4.5 g/L) at 37° C. in a humidified atmosphere of 5% CO2.
Each sample, 2 was sent to EpigenDx, Inc. (Hopkinton, MA) for analysis of global methylation bisulfite sequencing. The same samples, 6 μg, were sent to Novogene Co., Ltd (Tianjin, China) for analysis of whole genome bisulfite sequencing (WGBS). Total RNA was isolated using the Promega SV total RNA isolation system (Madison, WI) with DNase treatment. Each sample, 2 was used for the first-strand cDNA synthesis as recommended by the manufacturer (Invitrogen, Carlsbad, CA). […] Relative messenger RNA (mRNA) expression was quantified with the comparative cycle threshold (Ct) method using the primer set shown in Table 1.1 and was expressed as 2^−ΔΔct.
Analysis of Whole Human Genome Bisulfite Sequencing (WGBS) Each sample, 5.2 μg of genomic DNA spiked with 26 ng lambda DNA, was fragmented by sonication to 200-300 bp with Covaris S220, followed by end repair and adenylation. […] These DNA fragments were treated twice with bisulfite using EZ DNA Methylation-Gold™ Kit (Zymo Research) before the resulting single-strand DNA fragments were PCR amplified using KAPA HiFi Hot Start Uracil and Ready Mix (2×). […]

C[C@H](CCCC(C)(C)O)[C@H]1CC[C@H]2[C@@H]3CC=C4C[C@@H](OS(=O)(=O)O)CC[C@]4(C)[C@H]3CC[C@]12C [25HC3S, 25-hydroxycholesterol-3-sulfate]
amount in feces ([1]; pools 0 to 48 hours post-dose): 2 % of dose
share of the exposure (AUC) to 25HC3S related radioactivity in plasma ([1]; up to 1 hour post-dose): approximately 54%
ROI in feces [2]: 0-88%
amount in feces [2]: 71.1 % of total dose
plasma:whole blood AUClast ratio [3]: 0.79
tissue concentrations by 168 hours post-dose [3]: below quantitation limit in all tissues except adrenal gland, harderian gland, liver, and small intestine
tissue distribution of parent and/or metabolites ([3]; Group 3): broadly distributed and detected by quantitative whole body autoradiography in all tissues except the eye (lens)
tissue:plasma ratio, liver ([3]; calculated using AUClast): 11.4
tissue:plasma ratio, small intestine (wall) ([3]; calculated using AUClast): 7.44
AUClast in liver ([3]; derived radioactivity): ≤ 364,000 h·ng/g
mean plasma C0 [4]: 25,900 ng-equiv./g
plasma Cmax [5]: 3800 ng equiv./g
dose recovered in urine, feces, and cage rinse [6]: approximately 100.2 % of the dose
recovered radioactivity in feces [6]: 83.0%
hypomethylation levels across genomic functional regions versus vehicle (Huh-7 cells): significantly higher hypomethylation levels than vehicle
